Test results from patent US4879385A, “Substituted hydroxyalkyl-azoles and their use as antimycotics” (Bayer Aktiengesellschaft, priority 1982, dated 1989).

Assays:
fungi (antimycotic) = settings: prior art DE-OS 2,623,129 and DE-OS 2,851,086; cited from earlier work
Candida = assay: Antimycotic in vivo activity (oral) in candidosis of mice; settings: mice SPF-CF, i.v. Candida; oral 25-100 mg/kg 1 h before and 7 h after infection
Description: Mice of the SPF-CF type were infected intravenously with 1-2×10^6logarithmically growing Candida cells, which were suspended in physiological sodium chloride solution. The animals were treated orally one hour before and seven hours after the infection, with, in each case, 25-100 mg/kg of body weight of the formulations.
Untreated animals died 3 to 6 days after infection. The survival rate on the 6th day after infection was about 5% in the case of untreated control animals.

[1] = test system: dermatophytes, moulds and yeasts; assay: Antimycotic in vitro activity, series dilution test (overall comparison); format: cell-based; settings: 20° C., 24 to 96 hours
Description: The in vitro tests were carried out in series dilution test with germ inocula of an average of 5×10^4 germs/ml of substrate. The nutrient medium was (a) for dermatophytes and moulds: Sabourand's milieu d'epreuve and (b) for yeasts: meat extract/glucose broth. The incubation temperature was 20° C. and the duration of incubation was 24 to 96 hours in the case of yeasts, and 96 hours in the case of dermatophytes and moulds.

| SMILES | antimycotic properties (fungi (antimycotic)) | action in vivo compared with compounds (A), (B) and (C) (Candida) | antimycotic action in vitro compared with compounds (A), (B) and (C) [1] |
| --- | --- | --- | --- |
| OC(Cc1ccc(Cl)cc1)(Cn1ccnc1)c1ccc(Cl)cc1 (stereo not drawn) [(A), 1,2-bis(4-chlorophenyl)-2-hydroxy-3-(imidazol-1-yl)-propane] | good antimycotic properties |  |  |
| OC(Cn1ccnc1)(c1cccc(Cl)c1)c1cccc(Cl)c1 [(B), 1,1-bis(3-chlorophenyl)-1-hydroxy-2-(imidazol-1-yl)-ethane] | good antimycotic properties |  |  |
| OC(Cc1ccccc1)(Cn1cncn1)c1ccc(-c2ccccc2)cc1 (stereo not drawn) [(C), 2-(4-biphenyl)-2 hydroxy-1-phenyl-3-(1,2,4-triazol-1-yl)-propane] | good antimycotic properties |  |  |
| CC(C)(Cc1ccc(Cl)cc1)C(O)(Cn1ccnc1)c1ccc(Cl)cc1 (stereo not drawn) [Example 1, 2,4-bis(4-chlorophenyl)-3,3-dimethyl-1-(imidazol-1-yl)-butan-2-ol] |  | better action than the compounds (A), (B) and (C) | better antimycotic action than the compounds (A), (B) and (C) |
| CC(C)(Oc1ccc(Cl)cc1)C(O)(Cn1cncn1)c1ccc(Cl)cc1.Cl (stereo not drawn) [Example 2, 3-(4-chlorophenoxy)-2-(4-chlorophenyl)-3-methyl-1-(1,2,4-triazol-1-yl)-butan-2-ol hydrochloride] |  |  | better antimycotic action than the compounds (A), (B) and (C) |
| CC(C)(c1ccc(Cl)cc1)C(O)(Cn1ccnc1)c1ccc(Cl)cc1 (stereo not drawn) [Example 3] |  |  | better antimycotic action than the compounds (A), (B) and (C) |
| CC(C)(Cc1ccc(Cl)cc1)C(O)(Cn1cncn1)c1ccc(Cl)cc1 (stereo not drawn) [Example 4] |  | better action than the compounds (A), (B) and (C) | better antimycotic action than the compounds (A), (B) and (C) |
| CC(C)(c1ccc(Cl)cc1)C(O)(Cn1cncn1)c1ccc(Cl)cc1 (stereo not drawn) [Example 5] |  |  | better antimycotic action than the compounds (A), (B) and (C) |
| CC(C)(Cc1ccccc1)C(O)(Cn1cncn1)c1ccc(F)cc1 (stereo not drawn) [Example 6] |  |  | better antimycotic action than the compounds (A), (B) and (C) |
| CC(C)(Cc1ccc(Cl)cc1)C(O)(Cn1ccnc1)c1ccc(F)cc1 (stereo not drawn) [Example 8] |  | better action than the compounds (A), (B) and (C) | better antimycotic action than the compounds (A), (B) and (C) |
| CC(C)(Cc1ccc(Cl)cc1)C(O)(Cn1cncn1)c1ccc(F)cc1 (stereo not drawn) [Example 9] |  | better action than the compounds (A), (B) and (C) | better antimycotic action than the compounds (A), (B) and (C) |
| CC(C)(Cc1ccc(F)cc1)C(O)(Cn1ccnc1)c1ccc(Cl)cc1 (stereo not drawn) [Example 10] |  |  | better antimycotic action than the compounds (A), (B) and (C) |
| CC(C)(Cc1ccc(F)cc1)C(O)(Cn1cncn1)c1ccc(Cl)cc1 (stereo not drawn) [Example 11] |  | better action than the compounds (A), (B) and (C) | better antimycotic action than the compounds (A), (B) and (C) |
| CC(C)(Cc1ccc(Cl)cc1Cl)C(O)(Cn1ccnc1)c1ccc(F)cc1 (stereo not drawn) [Example 12] |  |  | better antimycotic action than the compounds (A), (B) and (C) |
| CC(C)(Sc1ccc(Cl)cc1)C(O)(Cn1cncn1)c1ccc(Cl)cc1 (stereo not drawn) [Example 14] |  |  | better antimycotic action than the compounds (A), (B) and (C) |
| CC(C)(Cc1ccc(F)cc1)C(O)(Cn1cncn1)c1ccccc1 (stereo not drawn) [Example 15] |  |  | better antimycotic action than the compounds (A), (B) and (C) |
| CC(C)(Sc1ccc(Cl)cc1)C(O)(Cn1ccnc1)c1ccc(Cl)cc1 (stereo not drawn) [Example 16] |  |  | better antimycotic action than the compounds (A), (B) and (C) |
| CC(C)(Oc1ccc(Cl)cc1Cl)C(O)(Cn1ccnc1)c1ccc(Cl)cc1 (stereo not drawn) [Example 17] |  | better action than the compounds (A), (B) and (C) |  |

| SMILES | antimycotic properties (fungi (antimycotic)) | action in vivo compared with compounds (A), (B) and (C) (Candida) | antimycotic action in vitro compared with compounds (A), (B) and (C) [1] |
| --- | --- | --- | --- |
| CC(C)(Oc1ccc(Cl)cc1Cl)C(O)(Cn1cncn1)c1ccc(Cl)cc1 (stereo not drawn) [Example 18] |  | better action than the compounds (A), (B) and (C) | better antimycotic action than the compounds (A), (B) and (C) |
| CC(C)(Oc1ccccc1Cl)C(O)(Cn1cncn1)c1ccc(Cl)cc1 (stereo not drawn) [Example 19] |  |  | better antimycotic action than the compounds (A), (B) and (C) |
| CC(C)(Oc1ccccc1Cl)C(O)(Cn1ccnc1)c1ccc(Cl)cc1 (stereo not drawn) [Example 20] |  |  | better antimycotic action than the compounds (A), (B) and (C) |
| Cc1cc(Cl)ccc1OC(C)(C)C(O)(Cn1cncn1)c1ccc(Cl)cc1 (stereo not drawn) [Example 21] |  |  | better antimycotic action than the compounds (A), (B) and (C) |
| CC(C)(Oc1ccccc1)C(O)(Cn1cncn1)c1ccc(Cl)cc1 (stereo not drawn) [Example 22] |  |  | better antimycotic action than the compounds (A), (B) and (C) |
| CC(C)(Oc1ccccc1)C(O)(Cn1ccnc1)c1ccc(Cl)cc1 (stereo not drawn) [Example 23] |  |  | better antimycotic action than the compounds (A), (B) and (C) |
| Cc1ccc(C(C)(C)C(O)(Cn2ccnc2)c2ccc(Cl)cc2)cc1 (stereo not drawn) [Example 25] |  |  | better antimycotic action than the compounds (A), (B) and (C) |
| CCC(C)(COc1ccc(Cl)cc1)C(O)(Cn1cncn1)c1ccc(Cl)cc1 (stereo not drawn) [Example 26] |  | better action than the compounds (A), (B) and (C) | better antimycotic action than the compounds (A), (B) and (C) |
| CCC(C)(Oc1ccc(Cl)cc1)C(O)(Cn1cncn1)c1ccc(Cl)cc1 (stereo not drawn) [Example 27] |  | better action than the compounds (A), (B) and (C) |  |
| CC(C)(Cc1ccc(F)cc1)C(O)(Cn1cncn1)c1ccc(F)cc1 (stereo not drawn) [Example 28] |  | better action than the compounds (A), (B) and (C) | better antimycotic action than the compounds (A), (B) and (C) |
| CC(C)(Oc1ccc(Cl)cc1)C(O)(Cn1cncn1)c1ccc(F)cc1 (stereo not drawn) [Example 29] |  | better action than the compounds (A), (B) and (C) | better antimycotic action than the compounds (A), (B) and (C) |
| CC(C)(Oc1ccc(F)cc1)C(O)(Cn1cncn1)c1ccc(F)cc1 (stereo not drawn) [Example 30] |  | better action than the compounds (A), (B) and (C) |  |
| CC(C)(Oc1ccc(Cl)cc1)C(O)(Cn1ccnc1)c1ccc(F)cc1 (stereo not drawn) [Example 31] |  | better action than the compounds (A), (B) and (C) |  |
| CC(C)(Oc1ccc(F)cc1)C(O)(Cn1ccnc1)c1ccc(F)cc1 (stereo not drawn) [Example 32] |  | better action than the compounds (A), (B) and (C) |  |
| CC(C)(Cc1ccc(F)cc1)C(O)(Cn1ccnc1)c1ccc(F)cc1 (stereo not drawn) [Example 33] |  | better action than the compounds (A), (B) and (C) |  |
| CCC(C)(Oc1ccc(F)cc1)C(O)(Cn1cncn1)c1ccc(F)cc1 (stereo not drawn) [Example 34] |  | better action than the compounds (A), (B) and (C) |  |
| CCC(C)(Oc1ccc(Cl)cc1)C(O)(Cn1cncn1)c1ccc(F)cc1 (stereo not drawn) [Example 35] |  | better action than the compounds (A), (B) and (C) | better antimycotic action than the compounds (A), (B) and (C) |
